According to patent publication US11046647B2, “Activators of the unfolded protein response” (The Board of Trustees of the University of Illinois, priority 2018, dated 2021):
Several values for one entry are separate records, joined by “and”; a condition that tells them apart may be missing. Identical values can stand only once.

Legend:
[1] = system: ERα Negative MCF-10A cells; assay: Trypan Blue exclusion cell death assay, MCF-10A; format: cell-based; conditions: 75 nM, 24 hours
Text: TRYPAN BLUE: For decades, viable cells have been measured by their ability to exclude the dye Trypan Blue. […] Dead cells, which have lost membrane integrity, take up the dye and are blue. Thus, the percentage of dead cells is the percentage of cells that are Trypan Blue positive out of the total cell population. Quantitative assessment of Trypan Blue uptake uses a cell counter from Fisher. Since the assay is instrument based, there is no observer bias in determining the percentage of Trypan Blue positive cells.
TRYPAN BLUE ASSAYS: Assays are performed on cells in 6 well plates: 300,000 cells are plated in each well of a 6-well plate in 3 ml of medium. After 24 hours, the DMSO vehicle or the indicated compound is added (in 1000th of the vol.) The cells incubated for an additional 24 hours, and then harvested in 0.25 ml of trypsin, followed after harvest by 0.75 ml of medium. The cells are spun down and resuspended in 100-200 μl of medium left that is over the cell pellet (resuspend cells by pipetting up and down a few times). Add 10 μl to 10 μl of trypan blue. Then 10 μl is inserted into the counting slide. After inserting the slide into the Fisher TC20 counting is automatic (these many cells are needed because an accurate ratio of Trypan Blue positive to Trypan Blue negative cells requires about 200 cells in the field the instrument counts).
In FIG. 28, neither the test compounds nor BHPI kill non-tumorigenic ERα Negative MCF-10A breast cells. ERα Negative MCF-10A cells were maintained for 24 hours in DMSO vehicle or 75 nM of BHPI or 75 nM of each of the indicated test compounds: 4, 6 and 105. Cell death was determined using the instrument-based Trypan Blue exclusion assay. (n=3±SEM).

T47D, TYS and TDG cells = assay: MTS proliferation assay (4 days), T47D, TYS and TDG; format: cell-based, human
Procedure: FIG. 30 compares the ability of BHPI and test compounds to inhibit proliferation of T47D, TYS and TDG cells. T47D cells were in medium containing 10 FBS (which contains estrogen), TYS-4 and TDG-1 cells were in medium containing 10% cd-FBS (estrogen depleted). Cells are plated at 2,000 cells/well in 96 well plates. After 24 hours in medium containing FBS or charcoal-dextran treated FBS (depleted of endogenous estrogens), the indicated concentration of each compound (in DMSO at 1/1000th of the volume of medium) was added. After 2 days the medium was changed, and the compounds were added again. After 2 additional days (4 days total) MTS assays are used to evaluate cell proliferation. (n=6 ±S.E.M.).

[2] = system: TYS-Luc (T47DERαY537S-Luc human breast cancer cells) tumors; assay: Orthotopic TYS-Luc mouse xenograft, bioluminescent imaging (BLI); format: in vivo
Procedure: In a treatment and vehicle-controlled mouse tumor study, human breast cancer cells were engineered to contain both the lethal ERαY537S mutation found in metastatic breast cancer, and the gene for firefly luciferase—when the appropriate chemical is added, the firefly luciferase breaks down the chemical and light is produced. Using a sensitive detector called an imaging system, this allows us to image the tumors inside live mice. This is called bioluminescent imaging, or BLI. Large tumors were allowed to form. Then (−)-105 was injected daily under the skin for three weeks. Using the imaging system, the effect of (−)-105 on the tumors was monitored. At the same time the effect of the vehicle in which (−)-105 was dissolved on tumors was also monitored.
A study was performed to determine what happens after stopping treatment with (−)-105 (Table 2). The study was designed to show whether the micro-tumors would remain dormant, or whether they would regrow. At the end of the three-week treatment, there is residual material that gives off a tiny amount of light which are termed “micro-tumors”. Based on sensitivity of the imaging system, it is believed these micro-tumors contain anywhere from 0˜1,000 cancer cells; the micro-tumors will not be visible to the naked eye. Seeing them requires the powerful imaging system, or a microscope. To test whether these cells are either dead, or no longer dividing and are dormant, the cells two and 4 weeks after they stopped receiving any treatment were imaged. This study tested whether growing cancer cells have been eradicated; this study continues.
In a 3-week study, large breast tumors were present at start of treatment and regressed as shown in the image of FIG. 17. The study was performed using Orthotopic TYS-Luc (injected cells: T47DERαY537-Luc human breast cancer cells), e.g., the most lethal ERα mutation in human in metastatic breast cancer. Tumors were grown in NSG mice. Further details are provided in the Examples.
Experimental Details of the Xenografts: TYS-Luc cells (5,000,000 cells in Matrigel) were injected into the upper mammary fat pad of ovariectomized female NSG (SCID) mice (Jackson labs). After 10 weeks, on day 0, large tumors (size range: 100-600 mm^3) were present. Mice were treated with the vehicle used to dissolve (−)-105, or (−)-105 at 40 mg/kd daily by subcutaneous injection. For bioluminescent imaging (BLI) of the tumors, the mice were anesthetized with isoflurane and Lucerfin, the luciferase substrate, was injected into the mice. Flux, the total member of light photons hitting the detector in one second was measured using an IVIS ([…]). Shown is the flux (in millions of units per second) for the entire area containing each tumor, or an equivalent area when the tumor is tiny or undetectable and the percent change in tumor size at each time a measurement was taken (day 0, day 3, week 1, week 2, week 3). Then treatment was stopped, and another measurement was taken two weeks letter. Note that tumors were also measured with calipers. […] After three days all the (−)-105 tumors has declined to undetectable using calipers.

[3] = system: partially BHPI-resistant T47D clones 1,3,8, and 11; assay: MTS growth assay, partially BHPI-resistant T47D clones; format: cell-based, human; conditions: 100 nM and 1 μM; 4 days
Procedure: ERα containing T47D human breast cancer cells able to survive in 1 μM BHPI were selected by clonal outgrowth. The effect of 100 nM and 1 μM BHPI and (−)-105 on growth of the (BHPI-sensitive) parental T47D cells and partially BHPI-resistant T47D clones 1,3,8, and 11 was evaluated. 4,000 cells/well were plated. Cell number was determined by MTS assay from a standard curve of absorbance versus cell number. […] Thus, in 4 days (−)-105 killed some, but not all, of the resistant cells.

[4] = 2 weeks after treatment stopped, per mouse
[5] = 4 weeks after treatment stopped, per mouse

SMILES: O=C1Nc2c(C(F)(F)F)cccc2C1(c1ccc(O)cc1)c1ccc(OC(F)(F)F)cc1 (racemic) [(±)-105, 3-(4-hydroxyphenyl)-3-(4-(trifluoromethoxy)phenyl)-7-(trifluoromethyl)indolin-2-one]
- cell death of MCF-10A cells [1]: neither BHPI nor any of the test compounds induce significant death
- effectiveness in killing compared with BHPI (T47D, TYS and TDG cells): more effective than BHPI

SMILES: O=C1Nc2c(C(F)(F)F)cccc2C1(c1ccc(O)cc1)c1ccc(OC(F)(F)F)cc1 (single isomer, unassigned; (-)) [(−)-105, 3-(4-hydroxyphenyl)-3-(4-(trifluoromethoxy)phenyl)-7-(trifluoromethyl)indolin-2-one]
- tumor regrowth after sub-therapeutic dose ([2]; 10 mg/kg oral): tumors did regrow
- Week 2 No Drug % Change in Tumor Flux [2, 4]: −99.95% and −99.84% and −100% (2×) and −99.991%
- Week 2 No Drug Tumor Flux [2, 4]: 0.13 millions of photons/sec and 0.11 millions of photons/sec and 0 millions of photons/sec (2×) and 0.17 millions of photons/sec
- health / toxicity of treated mice ([2]; 3-week treatment): No toxicity
- micro-tumor regrowth after stopping treatment ([2]; 4 weeks after stopping treatment): NO “MICRO-TUMOR” REGROWTH
- Week 4 No Drug % Change in Tumor Flux [2, 5]: −99.98% and −99.88% and −100% and −99.997% and −99.998%
- Week 4 No Drug Tumor Flux [2, 5]: 0.038 millions of photons/sec (2×) and 0.084 millions of photons/sec and 0 millions of photons/sec and 0.048 millions of photons/sec
- Day 3 Flux ([2]; Day 3, per mouse, 40 mg/kg daily, 40 mg/kg): 0.22 millions of photons/s and 0.043 millions of photons/s and 0.40 millions of photons/s and 0.29 millions of photons/s and 0.17 millions of photons/s
- Day 3 % Change in Tumor Flux ([2]; Day 3 vs Day 0, per mouse): −99.99% (2×) and −99.98% (2×) and −99.45%
- Day 7 Flux ([2]; Day 7, per mouse): 0.082 millions of photons/s and 0.041 millions of photons/s and 0.17 millions of photons/s and 0.059 millions of photons/s and 0.18 millions of photons/s
- Day 7 % Change in Tumor Flux ([2]; Day 7 vs Day 0, per mouse): −99.996% (2×) and −99.99% (2×) and −99.77%
- Day 14 Flux ([2]; Day 14, per mouse): 0.246 millions of photons/s and 0.039 millions of photons/s and 0.245 millions of photons/s and 0 millions of photons/s and 0.071 millions of photons/s
- Day 14 % Change in Tumor Flux ([2]; Day 14 vs Day 0, per mouse): −99.99% (2×) and −99.66% and −100% and −99.996%
- Day 21 Flux ([2]; Day 21, per mouse): 0.051 millions of photons/s and 0.16 millions of photons/s and 0.14 millions of photons/s and 0 millions of photons/s and 0.046 millions of photons/s
- Day 21 % Change in Tumor Flux ([2]; Day 21 vs Day 0, per mouse): −99.998% and −99.94% and −99.81% and −100% and −99.997%
- tumor regrowth upon treatment cessation ([2]; after 21 daily doses 40 mg/kg i.p.): tumors did not regrow
- tumor regression by BLI, 4 of the 5 tumors ([2]; after 3 days of treatment): more than 99.9%
- tumor regression by BLI, all five tumors ([2]; after 3 days of treatment): more than 99%
- tumor size using calipers, all 5 mice ([2]; after 3 days of treatment): undetectable
- tumor regression by BLI, 3 of the remaining 4 mice ([2]; after three weeks): more than 99.9%
- effect on Y537S tumors (TYS cell line) ([2]; dose-dependent, i.p. and oral administration): eradicates Y537S tumors
- tolerability ([2]; i.p. and oral administration): tolerated
- Start Recovery Flux ([2]; start of no-drug recovery after 3 weeks treatment, per mouse): 0.16 millions of photons/sec and 0.14 millions of photons/sec and 0 millions of photons/sec and 0.046 millions of photons/sec and 0.051 millions of photons/sec
- Start No Drug: % change in Tumor Flux ([2]; start of no-drug recovery, per mouse): −99.94% and −99.81% and −100% and −99.997%
- microtumor regrowth after stopping treatment ([2]; two weeks after treatment was stopped): had not started growing again
- tumor size using calipers, all 5 tumors ([2]; within seven days): undetectable size
- effect on growth / cell number [3]: completely blocked the growth of the resistant clones
